Measurements reported in patent US4370266A, “Mycoplanecin derivatives and their preparation” (Sankyo Company, Limited, priority 1980, dated 1983).
In brackets after ≈: the same amount, converted by molar mass. Like-named read-outs stand apart in the source and are kept apart here. Numbered stars: 1 amine (or outer) side, 2 acyl side, 3 side chain; on linkers, the order of the positions; unused ones are H or OH. Bridge positions count the residues as written; N and C are the ends. Square brackets hold non-standard residues; d marks the D form. Peptide text beside a SMILES is read from it. * marks the point of attachment. ξ: configuration not given here. X1 = CCC1CC(C(=O)[*:2])N([*:1])C1; Butanoyl(2-oxo) = CCC(=O)C(=O)*; NMeAhp(2) = CCCCC[CH](NC)C(=O)O; ξPro(4ξ-Me) = CC1CNC(C(=O)O)C1; NMeT = CN[CH](C(=O)O)[CH](C)O; NMeL = CN[CH](CC(C)C)C(=O)O; hLeu = CC(C)CC[CH](N)C(=O)O; NMeV = CN[CH](C(=O)O)C(C)C; X2 = CCC(O)C(=O)*

What was measured:
[1] = tested on: Mycobacterium smegmatis ATCC 607; assay: Minimal inhibitory concentration (MIC), Mycobacterium smegmatis ATCC 607; settings: Mycolicibacterium smegmatis, ATCC607, 168 h
[2] = tested on: microorganisms of the genus Mycobacterium; settings: earlier applications on Mycoplanecin A; cited from earlier work
[3] = tested on: Trichophyton mentagrophytes SANK 22374; assay: MIC, Trichophyton mentagrophytes SANK 22374; format: cell-based
[4] = tested on: Aspergillus oryzae SANK 11262; assay: MIC, Aspergillus oryzae SANK 11262; format: cell-based
[5] = tested on: Staphylococcus aureus 209P JC-1; assay: MIC, Staphylococcus aureus 209P JC-1; settings: 24 h
Micrococcus luteus = assay: MIC, Micrococcus luteus; settings: 24 h
Proteus mirabilis 1331 = assay: MIC, Proteus mirabilis 1331; settings: Proteus mirabilis, 1331, 24 h
Proteus vulgaris OX19 = assay: MIC, Proteus vulgaris OX19; settings: OX19, 24 h
[6] = tested on: Xanthomonas oryzae SANK 70274; assay: microbe, parasite or virus in culture; format: cell-based; settings: SANK70274, 72 h
[7] = tested on: Escherichia coli NIHJ JC-2; assay: MIC, Escherichia coli NIHJ JC-2; settings: NIHJJC2, 24 h
[8] = tested on: Bacillus subtilis PCI 219; assay: MIC, Bacillus subtilis PCI 219; settings: PCI219, 24 h
[9] = tested on: Piricularia oryzae SANK 16975; assay: microbe, parasite or virus in culture; format: cell-based; settings: 48 h
[10] = tested on: Penicillium chrysogenum SANK 12768; assay: MIC, Penicillium chrysogenum SANK 12768; format: cell-based
Solubility = settings: for Solubility: soluble in: organic solvents; for Solubility: insoluble in: water and, where named, other solvents
[11] = tested on: Pseudomonas aeruginosa SANK 73860; assay: MIC, Pseudomonas aeruginosa SANK 73860; settings: SANK73860, 24 h
Candida albicans Yu 1200 = assay: MIC, Candida albicans Yu 1200; format: cell-based
[12] = tested on: Klebsiella pneumoniae PCI 602; assay: MIC, Klebsiella pneumoniae PCI 602; settings: PCI602, 24 h

Structure (SMILES): CCCCCC1C(=O)NCC(=O)OC(C)C(N(C)C(=O)C2CC(CC)CN2C(=O)C(C(C)C)N(C)C(=O)C(O)CC)C(=O)NC(CC(C)C)C(=O)N2CC(C)CC2C(=O)NC(CCC(C)C)C(=O)N(C)C(C(C)C)C(=O)N2CCCC2C(=O)N1C (stereo not drawn) [Compound (IIIa)] (X2-[NMeV][X1][NMeT]L[ξPro(4ξ-Me)][hLeu][NMeV]P[NMeAhp(2)]G; ester 3-C; configuration not given here)
- MIC [1]: 0.05 µg/mL (≈ 0.0417 µM)

Structure (SMILES): CCCCCC1C(=O)NCC(=O)OC(C)C(N(C)C(=O)C2CC(CC)CN2)C(=O)NC(CC(C)C)C(=O)N2CC(C)CC2C(=O)NC(CCC(C)C)C(=O)N(C)C(C(C)C)C(=O)N2CCCC2C(=O)N1C (stereo not drawn) [Compound (IIIb)] (H-[X1][NMeT]L[ξPro(4ξ-Me)][hLeu][NMeV]P[NMeAhp(2)]G; ester 2-C; configuration not given here)
- MIC [1]: 6.25 µg/mL (≈ 6.25 µM)

Structure (SMILES): CCC(O)C(=O)N(C)C(C(=O)N1CC(C)CC1C(=O)N(C)C1C(=O)NC(CC(C)C)C(=O)N2CC(C)CC2C(=O)NC(CCC(C)C)C(=O)N(C)C(C(C)C)C(=O)N2CCCC2C(=O)N(C)C(CC(C)C)C(=O)NCC(=O)OC1C)C(C)C (stereo not drawn) [Compound (IIa)]
- MIC [1]: 0.05 µg/mL (≈ 0.0427 µM)

Structure (SMILES): CC(C)CCC1NC(=O)C2CC(C)CN2C(=O)C(CC(C)C)NC(=O)C(N(C)C(=O)C2CC(C)CN2)C(C)OC(=O)CNC(=O)C(CC(C)C)N(C)C(=O)C2CCCN2C(=O)C(C(C)C)N(C)C1=O (stereo not drawn) [Compound (IIb)]
- MIC [1]: 6.25 µg/mL (≈ 6.43 µM)

Structure (SMILES): CCC(=O)C(=O)N(C)C(C(=O)N1CC(CC)CC1C(=O)N(C)C1C(=O)NC(CC(C)C)C(=O)N2CC(C)CC2C(=O)NC(CCC(C)C)C(=O)N(C)C(C(C)C)C(=O)N2CCCC2C(=O)N(C)C(CC(C)C)C(=O)NCC(=O)OC1C)C(C)C (stereo not drawn) [Mycoplanecin A] ({Butanoyl(2-oxo)}-[NMeV][X1][NMeT]L[ξPro(4ξ-Me)][hLeu][NMeV]P[NMeL]G; ester 3-C; configuration not given here)
- antibacterial activity [2]: antibacterial activity, especially against microorganisms of the genus Mycobacterium

Structure (SMILES): CCC(=O)C(=O)N(C)C(C(=O)N1CC(C)CC1C(=O)N(C)C1C(=O)NC(CC(C)C)C(=O)N2CC(C)CC2C(=O)NC(CCC(C)C)C(=O)N(C)C(C(C)C)C(=O)N2CCCC2C(=O)N(C)C(CC(C)C)C(=O)NCC(=O)OC1C)C(C)C (stereo not drawn) [Mycoplanecin B]
- MIC ([3]; SANK22374, 48 h): > 400 µg/mL
- MIC ([4]; SANK11262, 48 h): > 400 µg/mL
- MIC [5]: > 400 µg/mL
- MIC (Micrococcus luteus): 0.0125 µg/mL (≈ 0.0107 µM)
- MIC (Proteus mirabilis 1331): > 400 µg/mL
- MIC (Proteus vulgaris OX19): > 400 µg/mL
- MIC ([6]; read-out: MIC): 12.5 µg/mL (≈ 10.7 µM)
- MIC [7]: > 400 µg/mL
- MIC [8]: > 400 µg/mL
- MIC [9]: > 400 µg/mL
- MIC ([10]; SANK12768, 48 h): > 400 µg/mL
- Solubility: soluble in (Solubility): Soluble in methanol, ethanol, ethyl acetate, acetone and chloroform
- Solubility: insoluble in (Solubility): Insoluble in water
- MIC [11]: > 400 µg/mL
- MIC [1]: 0.05 µg/mL (≈ 0.0428 µM)
- MIC (Candida albicans Yu 1200; YU1200, 48 h): > 400 µg/mL
- MIC [12]: > 400 µg/mL

Structure (SMILES): CCCCCC1C(=O)NCC(=O)OC(C)C(N(C)C(=O)C2CC(CC)CN2C(=O)C(C(C)C)N(C)C(=O)C(=O)CC)C(=O)NC(CC(C)C)C(=O)N2CC(C)CC2C(=O)NC(CCC(C)C)C(=O)N(C)C(C(C)C)C(=O)N2CCCC2C(=O)N1C (stereo not drawn) [Mycoplanecin C] ({Butanoyl(2-oxo)}-[NMeV][X1][NMeT]L[ξPro(4ξ-Me)][hLeu][NMeV]P[NMeAhp(2)]G; ester 3-C; configuration not given here)
- MIC ([3]; SANK22374, medium S: 48 hours at 26° C. in Sabouraud's agar, read-out: MIC): > 400 µg/mL
- MIC ([4]; SANK11262, medium S: 48 hours at 26° C. in Sabouraud's agar, read-out: MIC): > 400 µg/mL
- MIC [5]: > 400 µg/mL
- MIC (Micrococcus luteus): 0.0125 µg/mL (≈ 0.0104 µM)
- MIC (Proteus mirabilis 1331): > 400 µg/mL
- MIC (Proteus vulgaris OX19): > 400 µg/mL
- MIC [6]: 12.5 µg/mL (≈ 10.4 µM)
- MIC [7]: > 400 µg/mL
- MIC [8]: > 400 µg/mL
- MIC [9]: > 400 µg/mL
- MIC ([10]; SANK12768, medium S: 48 hours at 26° C. in Sabouraud's agar, read-out: MIC): > 400 µg/mL
- Solubility: soluble in (Solubility): Soluble in methanol, ethanol, ethyl acetate, acetone and chloroform
- Solubility: insoluble in (Solubility): Insoluble in water
- MIC [11]: > 400 µg/mL
- MIC [1]: 0.05 µg/mL (≈ 0.0418 µM)
- MIC (Candida albicans Yu 1200; YU1200, medium S: 48 hours at 26° C. in Sabouraud's agar, read-out: MIC): > 400 µg/mL
- MIC [12]: > 400 µg/mL
